Patent publication US7309817B2, “Plant alpha farnesene synthase and polynucleotides encoding same” (The Horticulture and Food Research Institute of New Zealand …, priority 2002, dated 2007)

Legend:
[1] = system: CC(C)=CCC/C(C)=C/CC/C(C)=C/CO[P@@](=O)(O)OP(=O)(O)O; experiment: purified protein, by the assay type; conditions: other: protein stored at -80 C for 9 months; pH 7.5
alpha-farnesene synthase = biological target: T1, alpha-farnesene synthase (Malus domestica, UniProt Q84LB2, A297S/I281F); assay type: biochemical; conditions: for Vrel (%), relative activity due to additions of metal ions: saturating FDP, Mg 7 mM, Mn 150 μM, KCl or NaCl 50 mM
T1 construct: a cDNA fragment encoding EST57400 was excised from pBK-CMV57400 using a EcoRI restriction endonuclease site immediately adjacent to the start ATG; His6 (from vector pET-30a) (N); made in house; host or cells: E. coli BL21-CodonPlus-RIL
Procedure: Kinetic Studies: For kinetic studies, alpha-farnesene synthase active protein that had been induced in culture and purified as described for protein optimisation was added to a minimal assay buffer containing 50 mM Bis-Tris-Propane (pH 7.5), 10% (v/v) glycerol, 1 mM DTT and 0.1% (v/v) Tween-20. […] One mL assays containing 1-2 μg of protein were overlaid with 0.6 mL pentane and incubated in 1.5 mL microfuge tubes for 2 hours at 30° C. and 150 rpm. All assays were performed in triplicate. Following incubation assays were immediately placed on ice and a 200 μL aliquot of the pentane layer removed for analysis. The aliquots were added to 1.5 mL microfuge tubes containing […] Organic Counting Scintillant (OCS) (Amersham) and vortexed briefly. Scintillation analysis was performed using a Wallac 1409 Liquid Scintillation Counter (^3H efficiency≈70%).
The effect on enzyme activity of metal co-factors with and without salts was also tested. Mg^2+ and Mn^2+ were added in the presence and absence of 50 mM KCL and 50 mM NaCl in all possible combinations. Controls included incubation without enzyme, with enzyme but without metal ion cofactors and with enzyme and cofactors in the presence of 10 mM EDTA.
Kinetic constants were determined from the DPM data by nonlinear regression using the Origin50 graphics package. […] All experiments were carried out at least twice.

[2] = system: other sesquiterpene synthases; conditions: other sesquiterpene synthases (Cai et al 2002, Steele et al 1998); read-out: Km reported in the literature; cited from earlier work
[3] = Storage stability of purified recombinant alpha-farnesene synthase at -80 C; assay type: physicochemical
Procedure: Characterization of alpha-farnesene synthase from bacterial extracts and partially purified alpha-farnesene synthase recombinant protein: Cultures were set up, grown and induced as above. Following induction, cultures were immediately transferred to a 24° C. incubator and allowed to grow for a further 18-20 hours with continuous agitation and then cells harvested by centrifugation (2000×g for 10 min). […] The remainder of the extract (15 ml) was applied to PD-10 gel filtration columns (Amersham-Pharmacia Biotech) pre-equilibrated with either binding or extraction buffer (DTT omitted). Eluent fractions were then pooled and purification of recombinant protein was carried out in a single step using immobilised metal affinity chromatography (IMAC). The eluent was applied to a Hi-Trap Chelating HP column (Amersham-Pharmacia Biotech) charged with Ni^+. Non bound proteins were removed and recombinant protein was eluted following the manufacturer's specifications. […] Headspace volatiles were collected as in the bacterial cultures. Aliquots of the remaining recombinant protein were stored at −80° C. in 20% glycerol until required.
Protein concentration was determined from the extinction coefficient (VectorNTI version 8) and the purified extract adjusted to ˜1 mg protein/mL with His6 elution buffer containing 10% glycerol and 1 mM DTT. […]

## alpha-farnesene synthase (Malus domestica; A297S/I281F)
[1]
  Km: 1.5 µM

## [Mn+2] [Mn^2+]
alpha-farnesene synthase; >800 μM Mn2+
  inhibition of activity at high Mn2+ concentration: at least 50%
alpha-farnesene synthase
  Vrel (%), relative activity due to additions of metal ions: 13%
[2]
  Km: 7 to 30 µM

## [Mg+2] [Mg^2+]
alpha-farnesene synthase; 25 mM Mg2+
  inhibition of activity at high Mg2+ concentration: 23%
alpha-farnesene synthase
  Vrel (%), relative activity due to additions of metal ions: 16%
[2]
  Km: 70 to 150 µM

B1: alpha-farnesene synthase: recombinant His-tagged sesquiterpene synthase from apple (Malus domestica Royal Gala) skin, expressed in E. coli (protein, listed as Malus domestica)
chain: MEFRVHLQADNEQKIFQNQMKPEPEASYLINQRRSANYKPNIWKNDFLDQSLISKYDGDEYRKLSEKLIEEVKIYISAETMDLVAKLELIDSVRKLGLANLFEKEIKEALDSIAAIESDNLGTRDDLYGTALHFKILRQHGYKVSQDIFGRFMDEKGTLENHHFAHLKGMLELFEASNLGFEGEDILDEAKASLTLALRDSGHICYPDSNLSRDVVHSLELPSHRRVQWFDVKWQINAYEKDICRVNATLLELAKLNFNVVQAQLQKNLREASRWWANLGFADNLKFARDRLVECFSCAVGVAFEPEHSSFRICLTKVINLVLIIDDVYDIYGSEEELKHFTNAVDRWDSRETEQLPECMKMCFQVLYNTTCEIAREIEEENGWNQVLPQLTKVWADFCKALLVEAEWYNKSHIPTLEEYLRNGCISSSVSVLLVHSFFSITHEGTKEMADFLHKNEDLLYNISLIVRLNNDLGTSAAEQERGDSPSSIVCYMREVNASEETARKNIKGMIDNAWKKVNGKCFTTNQVPFLSSFMNNATNMARVAHSLYKDGDGFGDQEKGPRTHILSLLFQPLVN
modifications: His tag
notes: recombinant His-tagged sesquiterpene synthase from apple (Malus domestica Royal Gala) skin, expressed in E. coli
alpha-farnesene synthase; 7 mM Mg, 150 μM Mn, 25 μM FDP, FIG. 14
  temperature of maximum activity: 37 °C
[3]; stored at -80 C for 9 months
  loss of activity on storage: 92.5%
[3]; stored in glycerol for 4 weeks at -80 C
  loss of activity on storage: 15%
